Experimental data published in BindingDB's records for doi:10.1016/S0968-0896(02)00561-8 (Purdue University, 2003).
Values joined by “and” are separate entries in the source; they are usually repeats but may differ in a detail not shown here. Equal entries are not always repeated. Structures can show the parent of a compound that is named as a salt.

Key:
D(3) dopamine receptor = D(3) dopamine receptor (Rattus norvegicus, UniProt P19020)
D(4) dopamine receptor = target: T1, D(4) dopamine receptor (Rattus norvegicus, UniProt P30729)
T1 sequence (P30729 whole entry): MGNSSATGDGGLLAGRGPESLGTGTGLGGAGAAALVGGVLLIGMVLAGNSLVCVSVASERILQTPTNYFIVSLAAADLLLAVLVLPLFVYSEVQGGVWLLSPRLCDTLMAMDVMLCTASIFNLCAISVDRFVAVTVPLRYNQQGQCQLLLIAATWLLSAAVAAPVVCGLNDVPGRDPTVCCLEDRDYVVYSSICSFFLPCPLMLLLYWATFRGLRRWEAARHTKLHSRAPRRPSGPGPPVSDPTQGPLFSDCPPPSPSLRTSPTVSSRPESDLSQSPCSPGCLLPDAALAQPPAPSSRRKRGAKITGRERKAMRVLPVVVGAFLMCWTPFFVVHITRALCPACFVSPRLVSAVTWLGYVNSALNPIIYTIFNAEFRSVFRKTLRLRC

D(1A) dopamine receptor = D(1A) dopamine receptor (Rattus norvegicus, UniProt P18901)
D(2) dopamine receptor = D(2) dopamine receptor (Rattus norvegicus, UniProt P61169)
Chain of D(2) dopamine receptor (P61169 whole entry): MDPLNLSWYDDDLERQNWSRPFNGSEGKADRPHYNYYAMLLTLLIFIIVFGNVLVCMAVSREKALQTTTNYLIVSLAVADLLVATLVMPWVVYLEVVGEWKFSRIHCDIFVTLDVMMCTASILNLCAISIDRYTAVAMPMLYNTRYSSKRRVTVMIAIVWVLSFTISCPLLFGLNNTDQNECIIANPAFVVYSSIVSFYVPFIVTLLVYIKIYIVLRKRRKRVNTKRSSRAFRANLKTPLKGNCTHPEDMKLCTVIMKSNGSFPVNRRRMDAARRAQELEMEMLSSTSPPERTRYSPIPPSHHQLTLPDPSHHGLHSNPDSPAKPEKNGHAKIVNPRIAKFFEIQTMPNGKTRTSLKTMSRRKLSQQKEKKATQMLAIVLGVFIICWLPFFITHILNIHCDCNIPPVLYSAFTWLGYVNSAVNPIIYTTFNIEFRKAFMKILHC

Chain of D(3) dopamine receptor (P19020 whole entry): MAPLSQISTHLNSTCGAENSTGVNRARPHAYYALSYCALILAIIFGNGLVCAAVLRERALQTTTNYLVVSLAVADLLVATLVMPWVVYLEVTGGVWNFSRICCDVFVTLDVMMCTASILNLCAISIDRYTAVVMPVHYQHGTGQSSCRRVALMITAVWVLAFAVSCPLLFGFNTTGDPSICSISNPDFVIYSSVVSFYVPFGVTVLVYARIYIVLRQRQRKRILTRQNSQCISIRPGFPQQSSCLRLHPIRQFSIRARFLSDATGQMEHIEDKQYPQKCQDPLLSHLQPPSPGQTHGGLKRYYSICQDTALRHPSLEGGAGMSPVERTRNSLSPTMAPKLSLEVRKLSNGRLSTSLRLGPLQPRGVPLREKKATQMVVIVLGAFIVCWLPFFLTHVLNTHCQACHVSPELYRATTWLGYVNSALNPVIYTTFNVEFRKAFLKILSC
Chain of D(1A) dopamine receptor (P18901 whole entry): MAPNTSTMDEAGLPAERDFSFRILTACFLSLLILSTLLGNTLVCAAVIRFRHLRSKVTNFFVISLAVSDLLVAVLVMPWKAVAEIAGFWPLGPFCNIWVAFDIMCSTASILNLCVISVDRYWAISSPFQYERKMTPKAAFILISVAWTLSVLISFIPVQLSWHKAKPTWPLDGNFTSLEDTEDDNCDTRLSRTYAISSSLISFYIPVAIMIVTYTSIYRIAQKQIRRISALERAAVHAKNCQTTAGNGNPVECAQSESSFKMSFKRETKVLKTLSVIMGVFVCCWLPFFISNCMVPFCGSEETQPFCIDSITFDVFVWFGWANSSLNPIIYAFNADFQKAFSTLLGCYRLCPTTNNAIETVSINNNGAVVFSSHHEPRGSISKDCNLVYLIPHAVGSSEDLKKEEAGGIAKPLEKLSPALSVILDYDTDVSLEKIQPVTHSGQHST

| Structure (SMILES) | Ki (D(3) dopamine receptor) [nM] | Ki (D(4) dopamine receptor) [nM] | Ki (D(1A) dopamine receptor) | Ki (D(2) dopamine receptor) |
| --- | --- | --- | --- | --- |
| CCCN1Cc2cccc3c2[C@@H](C1)c1ccc(O)c(O)c1C3 (racemic) [(+/-)-2-propyldinapsoline hydrobromide] | 2.8 | 17 | 170 nM and 1200 nM and 660 nM | 39 nM and 60 nM |
| C=CCN1Cc2c(C)ccc3c2[C@@H](C1)c1ccc(O)c(O)c1C3 (racemic) [Dinapsoline,(+/-)-4-Methyl-N-allyl] | 4.3 | 63 | 56 nM and 140 nM | 36 nM and 49 nM |
| C=CCN1Cc2cccc3c2[C@@H](C1)c1ccc(O)c(O)c1C3 (racemic) [Dinapsoline,(+/-)-N-allyl] | 14 | 48 |  |  |
| Cc1cccc2c1CN[C@H]1CCc3cc(O)c(O)cc3[C@H]21 [Dihydrexidine, 4-methyl] | 85 |  | 6.6 nM and 18 nM | 674 nM |
| CCCN1Cc2ccccc2[C@H]2c3cc(O)c(O)cc3CC[C@@H]21 [Dihydrexidine, N-propyl] | 8.7 |  | 180 nM |  |
| Oc1ccc2c(c1O)Cc1cccc3c1[C@H]2CNC3 [Dinapsoline, (R)(+)] |  | 60 |  |  |
| CCCN1Cc2c(C)cccc2[C@H]2c3cc(O)c(O)cc3CC[C@@H]21 [Dihydrexidine, 4-methyl-N-propyl] | 2.08 |  | 23.4 nM |  |
| CCCN1Cc2c(C)ccc3c2[C@@H](C1)c1ccc(O)c(O)c1C3 (racemic) [Dinapsoline,(+/-)-4-Methyl-N-propyl] | 2.5 | 28 | 200 nM and 1400 nM | 23 nM and 21 nM |
| Cc1ccc2c3c1CNC[C@H]3c1ccc(O)c(O)c1C2 (racemic) [Dinapsoline,(+/-)-4-Methyl] | 18 | 83 |  | 36 nM and 19 nM |
| Cc1ccc2c3c1Cc1c(ccc(O)c1O)[C@@H]3CNC2 (racemic) [Dinapsoline,(+/-)-6-Methyl] | 28 | 220 |  | 190 nM and 57 nM |
